According to patent US10517867B2, “Posaconazole derivative, pharmaceutical composition and use thereof” (priority 2016, dated 2019):
Read-outs that look alike come from different tables or passages of the source.

Tests used:
[1] = Solid stability test (stability chamber, HPLC total impurity); assay type: physicochemical; settings: solid, packaged, 25° C.±2° C., relative humidity 60%±2%
[2] = tested on: Candida albicans ATCC10231; assay: Candida albicans vaginitis in mice, intragastric administration; assay type: in vivo, KM mice; settings: logarithm of the CFU values, mean ± SD of 20 mice; for vaginal fungal load of mice, day 3 / vaginal fungal load of mice, day 5 / vaginal fungal load of mice, day 7 / vaginal fungal load of mice, day 11: 20 mg/kg intragastric once a day
[3] = tested on: Candida albicans ATCC10231; assay: Systemic fungal infection in mice, intravenous administration; assay type: in vivo, ICR mice
[4] = tested on: Candida albicans ATCC10231; assay: Systemic fungal infection in mice, intragastric administration; assay type: in vivo, ICR mice; settings: for responders at 20 mg/kg: Candida albicans, ATCC10231, po
[5] = tested on: Candida albicans ATCC10231; assay: Candida albicans vaginitis in mice, intravenous administration; settings: logarithm of the CFU values, mean ± SD of 20 mice; for vaginal fungal load of mice, day 5: 20 mg/kg tail vein once a day for 5 days, day 5 after infection; for vaginal fungal load of mice, day 3: 20 mg/kg tail vein once a day, day 3 after infection
Method: KM mice, weighing 18-22 g, female, provided by Hubei Experimental Animal Center.
The standard strain of Candida albicans was purchased from the American Type Culture
Collection, strain number ATCC10231.
Prior to being infected with Candida albicans, animals in each group were given subcutaneous injections of 0.5 ml of estradiol benzoate (2 mg/ml) for 6 consecutive days to allow them to enter the estrus phase. Injections were continued once every 2 days until the completion of the experiment. After 6 days, 20 μl of Candida albicans solution in a concentration of 3.5×10^6 CFU/ml was injected vaginally into each mouse, causing a vaginal infection model. From the first day after infection, each group of animals was given 20 mg/kg of the corresponding drug (calculated as posaconazole) in the tail vein at an administration volume of 0.1 ml/10 g once a day for 5 consecutive days. The model group was given an equal volume of solvent (physiological saline). On the 3rd and 5th days after infection, the vagina of mice were wiped with sterile cotton swabs. The cotton swabs were soaked in 0.9 ml physiological saline. The fungal solutions were diluted to 10-fold increments to give a series of concentrations, and then 100 μl of each concentration of the bacteria solutions was taken and inoculated on Sabourand's dextrose agar solid medium containing 0.5% (W/V) chloramphenicol to observe the fungal load of Candida albicans on the vagina.

[6] = tested on: Aspergillus Fumigutus (AF) strains; assay: Aspergillus fumigatus keratitis in rats, intravenous administration; settings: 10 mg/kg tail vein once daily for 5 days; mean ± SD of 10 rats
[7] = Determination of solubility in deionized water (HPLC, external standard); settings: for Solubility: 25±2° C., after 30 min; for solubility at 30 min: 25 °C, water, thermodynamic from solid
[8] = tested on: Aspergillus fumigatus AF293; assay: Lung Aspergillus fumigatus infection in immunosuppressed mice, intravenous administration; settings: for responders at 20 mg/kg: Aspergillus fumigatus, AF293, in Mus musculus, iv; for lung fungal load: mouse lung tissue, seven days later, 20 mg/kg tail vein once daily for 5 days, mean ± SD
Method: ICR male mice were injected intraperitoneally with cyclophosphamide 150 mg/kg and injected subcutaneously with dexamethasone 150 mg/kg for 10 consecutive days. At the same time, the blood was taken to measure the changes of peripheral white blood cells and neutrophils, and mice with neutrophils consistently lower than 100/μl were selected as successfully immunosuppressed mice. Immediately after the last injection, the mice were anesthetized with ethyl ether, and mice were transferred from the initial state of excitement to inhibition. After their bodies were relaxed, the mice were immediately taken. Left hand was used to grasp the mouse to make it stand upright, the middle finger pressed the mouth so that it could breath only with the nose, and the ring finger gently pressed the abdomen to move the diaphragm muscle upward. 30 μl of conidia suspension (Aspergillus fumigatus AF293, 3×10^6 conidia) was sent to the nostrils of the anesthetized mice by a micropipette to allow spontaneous inhalation. After the mouse returned to normal breathing, it was returned to the cage. […] The death of the mice was observed and the survival time was recorded. Seven days later, the mice were sacrificed and their lung tissues were taken to observe the fungal loads of Aspergillus fumigatus in the lungs of the mice.

[9] = tested on: Aspergillus fumigatus AF293; assay: Lung Aspergillus fumigatus infection in immunosuppressed mice, intragastric administration; settings: mouse lung tissue, seven days later; 20 mg/kg intragastric once daily for 5 days; mean ± SD
Method: Aspergillus fumigatus AF293, from the Guangdong Provincial Microbial Culture Collection Center.
ICR male mice were injected intraperitoneally with cyclophosphamide 150 mg/kg and injected subcutaneously with dexamethasone 150 mg/kg for 10 consecutive days. At the same time, the blood was taken to measure the changes of peripheral white blood cells and neutrophils, and mice with neutrophils consistently lower than 100/μl were selected as successfully immunosuppressed mice. Immediately after the last injection, the mice were anesthetized with ethyl ether, and mice were transferred from the initial state of excitement to inhibition. After their bodies were relaxed, the mice were immediately taken. Left hand was used to grasp the mouse to make it stand upright, the middle finger pressed the mouth so that it could breath only with the nose, and the ring finger gently pressed the abdomen to move the diaphragm muscle upward. 30 μl of conidia suspension (Aspergillus fumigatus AF293, 3×10^6 conidia) was sent to the nostrils of the anesthetized mice by a micropipette to allow spontaneous inhalation. After the mouse returned to normal breathing, it was returned to the cage. […] Seven days later, the mice were sacrificed and their lung tissues were taken to observe the fungal loads of Aspergillus fumigatus in the lungs of the mice.

[10] = Pharmacokinetics after single intragastric administration to rats; assay type: in vivo, SD rats; settings: plasma posaconazole, 2.5 mg/kg (calculated as posaconazole)
Method: Administration amount: 2.5 mg/kg (calculated as posaconazole)
Administration volume: 10 ml/kg
Drug concentration: 0.25 mg/mL
Administration vehicle: the positive drug posaconazole group used CMC—Na, while other groups used normal saline (physiological saline)
Administration route: intragastric administration
Experimental animals: SD rats, SPF grade, weighing 180-220 g, equal amount of male and female. Rats were randomly divided into groups of 6 with 3 males and 3 females.
Experimental protocol: after oral intragastric administration, blood samples were collected at different time points to determine the concentration of posaconazole in the plasma and the pharmacokinetic parameters of posaconazole were obtained.

[11] = In vitro metabolic stability in human plasma; assay type: in vitro ADME; settings: 37° C., 10 μM compound, metabolic half-life
How it was run: (§1)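 Human or rat plasma, preincubated 5 min at 37 °C, or intestinal S9 at 37 °C, spiked from 1 mM stock; triplicates sampled at 1, 2, 5, 15 and 30 min into cold internal standard. HPLC quantitation; half-life by non-compartmental analysis.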

[12] = In vitro metabolic stability in human intestine S9; assay type: in vitro ADME; settings: 37° C., 10 μM compound, 1 mg/mL S9, NADPH regeneration system
How it was run: as §1

[13] = In vitro metabolic stability in rat plasma; assay type: in vitro ADME; settings: 37° C., 10 μM compound, metabolic half-life
How it was run: as §1

[14] = In vitro metabolic stability in rat intestine S9; assay type: in vitro ADME; settings: 37° C., 10 μM compound, 1 mg/mL S9, NADPH regeneration system
How it was run: as §1

[15] = 24 h, read-out: survival rate of mice, day 1
[16] = 48 h, read-out: survival rate of mice, day 2
[17] = 72 h, read-out: survival rate of mice, day 3
[18] = 96 h, read-out: survival rate of mice, day 4
[19] = 120 h, read-out: survival rate of mice, day 5
[20] = 144 h, read-out: survival rate of mice, day 6
[21] = 168 h, read-out: survival rate of mice, day 7
[22] = 24 h, read-out: survival rate of mice, day 1, 20 mg/kg intragastric once daily for 5 days, day 1
[23] = 48 h, read-out: survival rate of mice, day 2, 20 mg/kg intragastric once daily for 5 days, day 2
[24] = 72 h, read-out: survival rate of mice, day 3, 20 mg/kg intragastric once daily for 5 days, day 3
[25] = 96 h, read-out: survival rate of mice, day 4, 20 mg/kg intragastric once daily for 5 days, day 4
[26] = 120 h, read-out: survival rate of mice, day 5, 20 mg/kg intragastric once daily for 5 days, day 5
[27] = 144 h, read-out: survival rate of mice, day 6, 20 mg/kg intragastric once daily for 5 days, day 6
[28] = 168 h, read-out: survival rate of mice, day 7, 20 mg/kg intragastric once daily for 5 days, day 7
[29] = 24 h, read-out: survival rate of mice, day 1, 20 mg/kg tail vein once daily for 5 days, day 1
[30] = 48 h, read-out: survival rate of mice, day 2, 20 mg/kg tail vein once daily for 5 days, day 2
[31] = 72 h, read-out: survival rate of mice, day 3, 20 mg/kg tail vein once daily for 5 days, day 3
[32] = 96 h, read-out: survival rate of mice, day 4, 20 mg/kg tail vein once daily for 5 days, day 4
[33] = 120 h, read-out: survival rate of mice, day 5, 20 mg/kg tail vein once daily for 5 days, day 5
[34] = 144 h, read-out: survival rate of mice, day 6, 20 mg/kg tail vein once daily for 5 days, day 6
[35] = 168 h, read-out: survival rate of mice, day 7, 20 mg/kg tail vein once daily for 5 days, day 7

| SMILES | Total impurity increment in 30 days [1] | responders at 20 mg/kg [3, 15] | responders at 20 mg/kg [3, 16] | responders at 20 mg/kg [3, 17] | responders at 20 mg/kg [3, 18] | responders at 20 mg/kg [4, 22] | responders at 20 mg/kg [4, 23] | responders at 20 mg/kg [4, 24] | responders at 20 mg/kg [4, 25] | responders at 20 mg/kg [4, 26] | responders at 20 mg/kg [4, 27] | responders at 20 mg/kg [4, 28] | Amount of active fungi in cornea at day 7 [6] | responders at 20 mg/kg [8, 29] | responders at 20 mg/kg [8, 30] | responders at 20 mg/kg [8, 31] | responders at 20 mg/kg [8, 32] | responders at 20 mg/kg [8, 33] | responders at 20 mg/kg [8, 34] | responders at 20 mg/kg [8, 35] | further results |
| --- | --- | --- | --- | --- | --- | --- | --- | --- | --- | --- | --- | --- | --- | --- | --- | --- | --- | --- | --- | --- | --- |
| CC[C@@H]([C@H](C)O)n1ncn(-c2ccc(N3CCN(c4ccc(OC[C@@H]5CO[C@@](Cn6c[n+](C(C)OC(=O)N(C)c7ncccc7COC(=O)[C@@H](N)CCCN)cn6)(c6ccc(F)cc6F)C5)cc4)CC3)cc2)c1=O (stereo partly shown) [ST0003] | 0.68% | 100% | 100% | 100% | 100% | 100% | 100% | 100% | 90% | 80% | 80% | 80% | 1.48 ± 0.38 10^3 CFU/ml | 100% | 100% | 100% | 100% | 100% | 90% | 90% | vaginal fungal load of mice, day 3 ([2]; 20 mg/kg): 4.23 ± 0.41; vaginal fungal load of mice, day 5 ([2]; 20 mg/kg): 4.05 ± 0.37; vaginal fungal load of mice, day 7 ([2]; 20 mg/kg): 3.28 ± 0.36; vaginal fungal load of mice, day 11 ([2]; 20 mg/kg): 2.47 ± 0.18; responders at 20 mg/kg [3, 19]: 100%; responders at 20 mg/kg [3, 20]: 100%; responders at 20 mg/kg [3, 21]: 90%; vaginal fungal load of mice, day 5 ([5]; 20 mg/kg): 3.85 ± 0.28; vaginal fungal load of mice, day 3 ([5]; 20 mg/kg): 4.11 ± 0.30; Solubility [7]: >50 mg/mL; lung fungal load ([8]; 20 mg/kg): 1.39 ± 0.32 10^4 CFU/ml |
| CC[C@@H]([C@H](C)OC(=O)[C@@H](N)CO)n1ncn(-c2ccc(N3CCN(c4ccc(OC[C@@H]5CO[C@@](Cn6c[n+](C(C)OC(=O)N(C)c7ncccc7COC(=O)[C@@H](N)CCCN)cn6)(c6ccc(F)cc6F)C5)cc4)CC3)cc2)c1=O (stereo partly shown) [ST0010] |  |  |  |  |  | 100% | 100% | 90% | 70% | 70% | 60% | 60% | 3.93 ± 0.73 10^3 CFU/ml | 100% | 100% | 90% | 80% | 80% | 70% | 60% | vaginal fungal load of mice, day 15 ([2]; 20 mg/kg intragastric once a day for 15 days, day 15): 2.75 ± 0.41; vaginal fungal load of mice, day 3 [2]: 4.21 ± 0.32; vaginal fungal load of mice, day 5 [2]: 4.38 ± 0.41; vaginal fungal load of mice, day 7 [2]: 3.97 ± 0.55; vaginal fungal load of mice, day 11 [2]: 3.37 ± 0.28; solubility at 30 min [7]: > 50 mg/mL; lung fungal load [8]: 2.75 ± 0.37 10^4 CFU/ml; lung fungal load [9]: 3.40 ± 0.63 10^4 CFU/ml |
| CC[C@@H]([C@H](C)O)n1ncn(-c2ccc(N3CCN(c4ccc(OC[C@@H]5CO[C@@](Cn6c[n+](C(C)OC(=O)N(C)c7ncccc7COC(=O)[C@@H](N)CCCNC(N)=O)cn6)(c6ccc(F)cc6F)C5)cc4)CC3)cc2)c1=O (stereo partly shown) [ST0012] |  | 100% | 100% | 100% | 100% | 100% | 100% | 100% | 80% | 80% | 80% | 80% | 1.45 ± 0.37 10^3 CFU/ml | 100% | 100% | 100% | 100% | 100% | 90% | 90% | vaginal fungal load of mice, day 3 [2]: 4.17 ± 0.43; vaginal fungal load of mice, day 5 [2]: 4.12 ± 0.35; vaginal fungal load of mice, day 7 [2]: 3.10 ± 0.34; vaginal fungal load of mice, day 11 [2]: 2.42 ± 0.19; responders at 20 mg/kg [3, 19]: 100%; responders at 20 mg/kg [3, 20]: 100%; responders at 20 mg/kg [3, 21]: 90%; vaginal fungal load of mice, day 5 [5]: 3.75 ± 0.26; vaginal fungal load of mice, day 3 [5]: 4.01 ± 0.28; solubility at 30 min [7]: > 50 mg/mL; lung fungal load [8]: 1.42 ± 0.30 10^4 CFU/ml |
| CC[C@@H]([C@H](C)O)n1ncn(-c2ccc(N3CCN(c4ccc(OC[C@@H]5CO[C@@](Cn6c[n+](C(C)OC(=O)NCC(=O)[O-])cn6)(c6ccc(F)cc6F)C5)cc4)CC3)cc2)c1=O.[Cl-].[Na+] (stereo partly shown) [ST0019] |  |  |  |  |  |  |  |  |  |  |  |  |  |  |  |  |  |  |  |  | AUClast [10]: 1.985 ± 0.358 µg·h/mL; Cmax [10]: 0.102 ± 0.026 µg/mL; T1/2 [10]: 684.6 ± 195 min |
| CCC(O[C@@H](C)[C@H](CC)n1ncn(-c2ccc(N3CCN(c4ccc(OC[C@@H]5CO[C@@](Cn6cncn6)(c6ccc(F)cc6F)C5)cc4)CC3)cc2)c1=O)OP(=O)([O-])[O-].[Na+].[Na+] (stereo partly shown) [ST0093] | 0.91% |  |  |  |  |  |  |  |  |  |  |  |  |  |  |  |  |  |  |  | Human plasma T1/2 [11]: 18.95 ± 2.76 min; Human intestine S9 T1/2 [12]: 61.98 ± 14.26 min; Rat plasma T1/2 [13]: 15.69 ± 4.88 min; Rat intestine S9 T1/2 [14]: 57.25 ± 12.56 min; AUClast [10]: 3.056 ± 1.265 µg·h/mL; Cmax [10]: 0.125 ± 0.058 µg/mL; T1/2 [10]: 746.4 ± 128 min; survival rate of mice, day 1 ([4]; 20 mg/kg intragastric once daily for 5 days, day 1): 70%; survival rate of mice, day 2 ([4]; 20 mg/kg intragastric once daily for 5 days, day 2): 70%; survival rate of mice, day 3 ([4]; 20 mg/kg intragastric once daily for 5 days, day 3): 60%; survival rate of mice, day 4 ([4]; 20 mg/kg intragastric once daily for 5 days, day 4): 60%; survival rate of mice, day 5 ([4]; 20 mg/kg intragastric once daily for 5 days, day 5): 60%; survival rate of mice, day 6 ([4]; 20 mg/kg intragastric once daily for 5 days, day 6): 60%; survival rate of mice, day 7 ([4]; 20 mg/kg intragastric once daily for 5 days, day 7): 60%; Solubility [7]: 27.9 mg/mL |
